Results as given in US20110077248A1, “IMIDAZOPYRIDINE AND RELATED ANALOGS AS SIRTUIN MODULATORS” (Sirtris Pharmaceuticals, Inc., priority 2008, published 2011).

Biological target: T1, SIRT1 (Homo sapiens, UniProt Q96EB6)
T1 construct: His-tag (N); made in house; host or cells: E. coli BL21(DE3), T7-promoter vector
T1 sequence (Q96EB6 1-747): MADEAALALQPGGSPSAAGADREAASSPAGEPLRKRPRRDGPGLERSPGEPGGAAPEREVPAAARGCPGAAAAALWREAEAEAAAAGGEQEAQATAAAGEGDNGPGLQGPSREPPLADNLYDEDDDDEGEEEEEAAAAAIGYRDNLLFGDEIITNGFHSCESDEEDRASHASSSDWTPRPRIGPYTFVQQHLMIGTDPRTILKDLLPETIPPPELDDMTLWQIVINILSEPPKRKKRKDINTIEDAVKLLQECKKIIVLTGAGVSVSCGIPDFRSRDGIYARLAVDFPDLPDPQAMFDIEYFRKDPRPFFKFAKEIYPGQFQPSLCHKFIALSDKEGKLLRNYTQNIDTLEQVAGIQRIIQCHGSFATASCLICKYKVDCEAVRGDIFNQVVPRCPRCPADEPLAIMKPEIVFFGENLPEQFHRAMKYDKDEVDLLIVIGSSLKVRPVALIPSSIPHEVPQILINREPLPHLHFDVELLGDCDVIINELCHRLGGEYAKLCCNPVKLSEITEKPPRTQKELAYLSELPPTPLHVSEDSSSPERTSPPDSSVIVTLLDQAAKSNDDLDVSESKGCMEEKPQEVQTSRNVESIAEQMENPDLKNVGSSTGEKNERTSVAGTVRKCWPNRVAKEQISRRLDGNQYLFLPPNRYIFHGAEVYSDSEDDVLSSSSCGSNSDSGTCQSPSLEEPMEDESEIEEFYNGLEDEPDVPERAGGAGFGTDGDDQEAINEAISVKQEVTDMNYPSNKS
Assay: Mass spectrometry based assay for modulators of SIRT1 activity (deacetylation of p53-based acetylated peptide)
Type: biochemical
Details: for EC1.5: concentration of test compound that results in 150% activation of SIRT1, 0.5 μM peptide substrate, 120 μM βNAD+, 10 nM SIRT1, 25 min, 25° C.; for Emax: percent maximum fold activation of SIRT1
Source text: A mass spectrometry based assay was used to identify modulators of SIRT1 activity. The mass spectrometry based assay utilizes a peptide having 20 amino acid residues as follows: Ac-EE-K(biotin)-GQSTSSHSK(Ac)NleSTEG-K(5TMRi)-EE-NH2 (SEQ ID NO: 1) wherein K(Ac) is an acetylated lysine residue and Nle is a norleucine. The peptide is labeled with the fluorophore 5TMR (excitation 540 nm/emission 580 nm) at the C-terminus. The sequence of the peptide substrate is based on p53 with several modifications. In addition, the methionine residue naturally present in the sequence was replaced with the norleucine because the methionine may be susceptible to oxidation during synthesis and purification.
The mass spectrometry assay is conducted as follows: 0.5 μM peptide substrate and 120 μM βNAD+ is incubated with 10 nM SIRT1 for 25 minutes at 25° C. in a reaction buffer (50 mM Tris-acetate pH 8, 137 mM NaCl, 2.7 mM KCl, 1 mM MgCl2, 5 mM DTT, 0.05% BSA). Test compounds may be added to the reaction as described above. The SirT1 gene is cloned into a T7-promoter containing vector and transformed into BL21(DE3). After the 25 minute incubation with SIRT1, 10 μL of 10% formic acid is added to stop the reaction. Reactions are sealed and frozen for later mass spec analysis. Determination of the mass of the substrate peptide allows for precise determination of the degree of acetylation (i.e. starting material) as compared to deacetylated peptide (product).
A control for inhibition of sirtuin activity is conducted by adding 1 μL of 500 mM nicotinamide as a negative control at the start of the reaction (e.g., permits determination of maximum sirtuin inhibition). A control for activation of sirtuin activity is conducted using 10 nM of sirtuin protein, with 1 μL of DMSO in place of compound, to determinine the amount of deacetylation of the substrate at a given timepoint within the linear range of the assay. This timepoint is the same as that used for test compounds and, within the linear range, the endpoint represents a change in velocity.
For the above assay, SIRT1 protein was expressed and purified as follows. The SirT1 gene was cloned into a T7-promoter containing vector and transformed into BL21(DE3). The protein was expressed by induction with 1 mM IPTG as an N-terminal His-tag fusion protein at 18° C. overnight and harvested at 30,000×g. Cells were lysed with lysozyme in lysis buffer (50 mM Tris-HCl, 2 mM Tris[2-carboxyethyl]phosphine (TCEP), 10 μM ZnCl2, 200 mM NaCl) and further treated with sonication for 10 min for complete lysis. The protein was purified over a Ni-NTA column (Amersham) and fractions containing pure protein were pooled, concentrated and run over a sizing column (Sephadex S200 26/60 global). The peak containing soluble protein was collected and run on an Ion-exchange column (MonoQ). Gradient elution (200 mM-500 mM NaCl) yielded pure protein. This protein was concentrated and dialyzed against dialysis buffer (20 mM Tris-HCl, 2 mM TCEP) overnight. The protein was aliquoted and frozen at −80° C. until further use.
Sirtuin modulating compounds that activated SIRT1 were identified using the assay described above and are shown below in Table 1. The EC1.5 values represent the concentration of test compounds that result in 150% activation of SIRT1. The EC1.5 values for the activating compounds are represented by A (EC1.5<1.0 uM), B (EC1.5 1-25 uM), C (EC1.5>25 uM). The percent maximum fold activation is represented by A (Fold activation >200%) or B (Fold Activation <200%). “NT” indicates the compound was not tested in a particular assay.

Row | SMILES | EC1.5 | Emax
1 | O=C(Nc1ccccn1)c1cccn2cc(-c3ccc(N4CCOCC4)cc3)nc12 [Compound 184] | C (EC1.5>25 uM) | < 200%
2 | O=C(Nc1nccs1)c1nccn2cc(-c3ccccc3OC(F)(F)F)nc12 [Compound 185] | B (EC1.5 1-25 uM) | > 200%
3 | O=C(Nc1ccccn1)c1nccn2cc(-c3ccccc3OC(F)(F)F)nc12 [Compound 186] | B (EC1.5 1-25 uM) | > 200%
4 | O=C(Nc1nccs1)c1nccn2cc(-c3ccc(F)cc3C(F)(F)F)nc12 [Compound 188] | B (EC1.5 1-25 uM) | > 200%
5 | O=C(Nc1cccnn1)c1nccn2cc(-c3ccc(F)cc3C(F)(F)F)nc12 [Compound 191] | B (EC1.5 1-25 uM) | > 200%
6 | O=C(Nc1nc(CN2CCOCC2)cs1)c1cccn2cc(-c3cc(F)cc(F)c3)nc12 [Compound 192] | A (EC1.5<1.0 uM) | > 200%
7 | O=C(Nc1nc(CN2CCOCC2)cs1)c1cccn2cc(-c3ccc(F)cc3F)nc12 [Compound 198] | A (EC1.5<1.0 uM) | < 200%
8 | O=C(Nc1cccc(CN2CCOCC2)n1)c1cccn2cc(-c3ccc(F)cc3F)nc12 [Compound 199] | B (EC1.5 1-25 uM) | < 200%
9 | O=C(Nc1nc(CN2CCOCC2)cs1)c1cccn2cc(-c3ccc(C(F)F)cc3)nc12 [Compound 204] | B (EC1.5 1-25 uM) | > 200%
10 | O=C(Nc1cccc(CN2CCOCC2)n1)c1cccn2cc(-c3ccc(C(F)F)cc3)nc12 [Compound 205] | A (EC1.5<1.0 uM) | > 200%
11 | O=C(Nc1nccs1)c1cccn2cc(-c3cccc(C(F)F)c3)nc12 [Compound 206] | B (EC1.5 1-25 uM) | < 200%
12 | O=C(Nc1nc(CN2CCOCC2)cs1)c1cccn2cc(-c3cccc(C(F)F)c3)nc12 [Compound 208] | A (EC1.5<1.0 uM) | > 200%
13 | O=C(Nc1cccc(CN2CCOCC2)n1)c1cccn2cc(-c3cccc(C(F)F)c3)nc12 [Compound 209] | A (EC1.5<1.0 uM) | > 200%
14 | Cc1ccc(-c2nc3c(C(=O)Nc4ccccn4)cccn3n2)cn1 [Compound 211] | C (EC1.5>25 uM) | < 200%
15 | Cc1ccc(-c2nc3c(C(=O)Nc4cccc(CN5CCOCC5)n4)cccn3n2)cn1 [Compound 213] | B (EC1.5 1-25 uM) | > 200%
16 | Cc1cc(-c2nc3c(C(=O)Nc4cccc(CN5CCOCC5)n4)cccn3n2)ccn1 [Compound 217] | B (EC1.5 1-25 uM) | > 200%
17 | O=C(Nc1ccc(CCN2CCCC2)cc1)c1cccn2cc(-c3ccc(F)cc3C(F)(F)F)nc12 [Compound 218] | C (EC1.5>25 uM) | < 200%

The next lines start with the values.

Row | EC1.5 | Emax | SMILES
18 | B (EC1.5 1-25 uM) | < 200% | O=C(Nc1ccccn1)c1cccn2nc(-c3cccc(N4CCOCC4)c3)nc12 [Compound 182]
19 | C (EC1.5>25 uM) | < 200% | O=C(Nc1nccs1)c1cccn2cc(-c3ccc(N4CCOCC4)cc3)nc12 [Compound 183]
20 | B (EC1.5 1-25 uM) | > 200% | Cc1cnc(NC(=O)c2nccn3cc(-c4ccccc4OC(F)(F)F)nc23)s1 [Compound 187]
21 | B (EC1.5 1-25 uM) | > 200% | O=C(Nc1ccccn1)c1nccn2cc(-c3ccc(F)cc3C(F)(F)F)nc12 [Compound 189]
22 | A (EC1.5<1.0 uM) | > 200% | Cc1cnc(NC(=O)c2nccn3cc(-c4ccc(F)cc4C(F)(F)F)nc23)s1 [Compound 190]
23 | A (EC1.5<1.0 uM) | > 200% | O=C(Nc1cccc(CN2CCOCC2)n1)c1cccn2cc(-c3cc(F)cc(F)c3)nc12 [Compound 193]
24 | B (EC1.5 1-25 uM) | > 200% | O=C(Nc1nc(CN2CCOCC2)cs1)c1nccn2cc(-c3ccc(F)c(F)c3)nc12 [Compound 194]
25 | B (EC1.5 1-25 uM) | > 200% | O=C(Nc1cccc(CN2CCOCC2)n1)c1cccn2cc(-c3ccc(F)c(F)c3)nc12 [Compound 195]
26 | B (EC1.5 1-25 uM) | < 200% | O=C(Nc1nc(CN2CCOCC2)cs1)c1cccn2cc(-c3cc(F)c(F)c(F)c3)nc12 [Compound 196]
27 | B (EC1.5 1-25 uM) | > 200% | O=C(Nc1cccc(CN2CCOCC2)n1)c1cccn2cc(-c3cc(F)c(F)c(F)c3)nc12 [Compound 197]
28 | A (EC1.5<1.0 uM) | > 200% | O=C(Nc1nc(CN2CCOCC2)cs1)c1cccn2cc(-c3cc(F)ccc3F)nc12 [Compound 200]
29 | A (EC1.5<1.0 uM) | > 200% | O=C(Nc1cccc(CN2CCOCC2)n1)c1cccn2cc(-c3cc(F)ccc3F)nc12 [Compound 201]
30 | C (EC1.5>25 uM) | < 200% | O=C(Nc1nccs1)c1cccn2cc(-c3ccc(C(F)F)cc3)nc12 [Compound 202, 2-(4-(difluoromethyl)phenyl)-N-(thiazol-2-yl)imidazo[1,2-a]pyridine-8-carboxamide]
31 | C (EC1.5>25 uM) | < 200% | O=C(Nc1ccccn1)c1cccn2cc(-c3ccc(C(F)F)cc3)nc12 [Compound 203]
32 | A (EC1.5<1.0 uM) | < 200% | O=C(Nc1ccccn1)c1cccn2cc(-c3cccc(C(F)F)c3)nc12 [Compound 207]
33 | C (EC1.5>25 uM) | < 200% | Cc1ccc(-c2nc3c(C(=O)Nc4nccs4)cccn3n2)cn1 [Compound 210, 2-(6-methylpyridin-3-yl)-N-(thiazol-2-yl)-[1,2,4]triazolo[1,5-a]pyridine-8-carboxamide]
34 | B (EC1.5 1-25 uM) | < 200% | Cc1ccc(-c2nc3c(C(=O)Nc4nc(CN5CCOCC5)cs4)cccn3n2)cn1 [Compound 212]
35 | B (EC1.5 1-25 uM) | > 200% | Cc1cc(-c2nc3c(C(=O)Nc4nccs4)cccn3n2)ccn1 [Compound 214, 2-(2-methylpyridin-4-yl)-N-(thiazol-2-yl)-[1,2,4]triazolo[1,5-a]pyridine-8-carboxamide]
36 | B (EC1.5 1-25 uM) | > 200% | Cc1cc(-c2nc3c(C(=O)Nc4ccccn4)cccn3n2)ccn1 [Compound 215]
37 | B (EC1.5 1-25 uM) | > 200% | Cc1cc(-c2nc3c(C(=O)Nc4nc(CN5CCOCC5)cs4)cccn3n2)ccn1 [Compound 216]
